From patent US6479435B1, “Diaryl ethers and processes for their preparation and herbicidal and desiccant compositions containing them” (ISK Americas Incorporated, priority 1997, dated 2002)

Legend:
Assay type in all cases: in vivo
[1] = system: ivyleaf morningglory (Ipomoea hederacea, IPOHE); experiment: Pre-emerge greenhouse herbicide test, phytotoxicity rating; conditions: 1000 g ai/ha, 14 days after application, rating scale 0-100
Source text: (§1) A standard greenhouse herbicide activity screening system was used to evaluate the herbicidal efficacy and crop safety of these test compounds. Six broadleaf weed species including redroot pigweed (Amaranthus retroflexus, AMARE), velvetleaf (Abutilon theophrasti, ABUTH), sicklepod (Cassia obtusifolia, CASOB), ivyleaf morningglory (Ipomoea hederacea, IPOHE), lambsquarters (Chenopodium album, CHEAL) and common ragweed (Ambrosia artemisiifolia L., AMBEL) were used as test species. Four grass weed species including green foxtail (Setaria viridis, SETVI), barnyardgrass (Echinochloa crusgalli, ECHCG), Johnsongrass (Sorghum halepense, SORHA), and large crabgrass (Digitaria sanguinalis, DIGSA) were also used. In addition, three crop species, field corn (Zea mays L., var. Dekalb 535, CORN), soybean (Glycine max L., var. Pella 86, SOY), and upland rice (Oryza sp., var.Tebonnet, RICE) were included.
(§2) All plants were grown in 10 cm square plastic pots which were filled with a sandy loam soil mix. For preemerge tests, seeds were planted one day prior to application of the test compounds. Immediately after application, test units of the pre-emerge applications were watered at the soil surface to incorporate the test materials. Subsequently, these test units were bottom-watered.
(§3) All test compounds were dissolved in acetone and applied to the test units in a volume of 187 l/ha. Test materials were applied at rates ranging from 125 g ai/ha to 1000 g ai/ha using a track sprayer equipped with a TJ8001E even flow flat fan spray nozzle. Plants were arranged on a shelf so that the top of the canopy (post-emerge) or top of the soil surface (pre-emerge) was 40-45 cm below the nozzle. Pressurized air was used to force the test solution through the nozzle as it was mechanically advanced (via electrically driven chain drive) over the top of all test plants/pots. This application simulates a typical commercial field herbicide application.
(§4) At 14 days after application of the test materials, phytotoxicity ratings were recorded. A rating scale of 0-100 was used as previously described in Research Methods in Weed Science, 2nd edition, B. Truelove, Ed., Southern Weed Science Society, Auburn University, Auburn, Ala., 1977. Briefly, “0” corresponds to no damage and “100” corresponds to complete death of all plants in the test unit. This scale was used both to determine efficacy against weed species and damage to crop species. Herbicide activity data for various compounds of this invention, which are shown by compound number in Tables 1-9, are shown in Tables 13 and 14.

[2] = system: redroot pigweed (Amaranthus retroflexus, AMARE); experiment: as above; conditions: 1000 g ai/ha, 14 days after application, rating scale 0-100
Source text: as §1, §2, §3, §4

[3] = system: Johnsongrass (Sorghum halepense, SORHA); experiment: as above; conditions: 1000 g ai/ha, 14 days after application, rating scale 0-100
Source text: as §1, §2, §3, §4

[4] = system: barnyardgrass (Echinochloa crusgalli, ECHCG); experiment: as above; conditions: 1000 g ai/ha, 14 days after application, rating scale 0-100
Source text: as §1, §2, §3, §4

[5] = system: large crabgrass (Digitaria sanguinalis, DIGSA); experiment: as above; conditions: 1000 g ai/ha, 14 days after application, rating scale 0-100
Source text: as §1, §2, §3, §4

[6] = system: sicklepod (Cassia obtusifolia, CASOB); experiment: as above; conditions: 1000 g ai/ha, 14 days after application, rating scale 0-100
Source text: as §1, §2, §3, §4

[7] = system: velvetleaf (Abutilon theophrasti, ABUTH); experiment: as above; conditions: 1000 g ai/ha, 14 days after application, rating scale 0-100
Source text: as §1, §2, §3, §4

[8] = system: lambsquarters (Chenopodium album, CHEAL); experiment: as above; conditions: 1000 g ai/ha, 14 days after application, rating scale 0-100
Source text: as §1, §2, §3, §4

[9] = system: green foxtail (Setaria viridis, SETVI); experiment: as above; conditions: 1000 g ai/ha, 14 days after application, rating scale 0-100
Source text: as §1, §2, §3, §4

[10] = system: ivyleaf morningglory (Ipomoea hederacea, IPOHE); experiment: Post-emerge greenhouse herbicide test, phytotoxicity rating; conditions: 1000 g al/ha, 14 days after application
Source text: as §1, §3
(§5) In the post-emerge test, a commercial non-ionic surfactant was also included (0.25% v/v) to enhance wetting of the leaf surfaces Qf target plants at rates ranging from 63 g ai/ha to 1000 g ai/ha. For post-emerge tests, seeds were planted 8-21 days prior to the test to allow emergence and good foliage development prior to application of the test substances. At the time of the post-emerge application, plants of all species were usually at the 2-3 leaf stage of development. Post-emerge test units were always bottom-watered.
as §4

[11] = system: redroot pigweed (Amaranthus retroflexus, AMARE); experiment: as above; conditions: 1000 g al/ha, 14 days after application
Source text: as §1, §3, §5, §4

[12] = system: Johnsongrass (Sorghum halepense, SORHA); experiment: as above; conditions: 1000 g al/ha, 14 days after application
Source text: as §1, §3, §5, §4

[13] = system: barnyardgrass (Echinochloa crusgalli, ECHCG); experiment: as above; conditions: 1000 g al/ha, 14 days after application
Source text: as §1, §3, §5, §4

[14] = system: large crabgrass (Digitaria sanguinalis, DIGSA); experiment: as above; conditions: 1000 g al/ha, 14 days after application
Source text: as §1, §3, §5, §4

[15] = system: sicklepod (Cassia obtusifolia, CASOB); experiment: as above; conditions: 1000 g al/ha, 14 days after application
Source text: as §1, §3, §5, §4

[16] = system: velvetleaf (Abutilon theophrasti, ABUTH); experiment: as above; conditions: 1000 g al/ha, 14 days after application
Source text: as §1, §3, §5, §4

[17] = system: lambsquarters (Chenopodium album, CHEAL); experiment: as above; conditions: 1000 g al/ha, 14 days after application
Source text: as §1, §3, §5, §4

[18] = system: green foxtail (Setaria viridis, SETVI); experiment: as above; conditions: 1000 g al/ha, 14 days after application
Source text: as §1, §3, §5, §4

[19] = system: field corn (Zea mays L., var. Dekalb 535, CORN); experiment: Post-emerge greenhouse test, crop damage rating; conditions: 1000 g al/ha, 14 days after application
Source text: as §1, §3, §5, §4

[20] = system: upland rice (Oryza sp., var.Tebonnet, RICE); experiment: Post-emerge greenhouse test, crop damage rating; conditions: 1000 g al/ha, 14 days after application
Source text: as §1, §3, §5, §4

[21] = system: field corn (Zea mays L., var. Dekalb 535, CORN); experiment: Pre-emerge greenhouse test, crop damage rating; conditions: 1000 g ai/ha, 14 days after application, rating scale 0-100
Source text: as §1, §2, §3, §4

[22] = system: upland rice (Oryza sp., var.Tebonnet, RICE); experiment: Pre-emerge greenhouse test, crop damage rating; conditions: 1000 g ai/ha, 14 days after application, rating scale 0-100
Source text: as §1, §2, §3, §4

[23] = system: soybean (Glycine max L., var. Pella 86, SOY); experiment: Pre-emerge greenhouse test, crop damage rating; conditions: 1000 g ai/ha, 14 days after application, rating scale 0-100
Source text: as §1, §2, §3, §4

[24] = system: soybean (Glycine max L., var. Pella 86, SOY); experiment: Post-emerge greenhouse test, crop damage rating; conditions: 1000 g al/ha, 14 days after application
Source text: as §1, §3, §5, §4

SMILES	phytotoxicity rating IPOHE [1]	phytotoxicity rating AMARE [2]	phytotoxicity rating SORHA [3]	phytotoxicity rating ECHCG [4]	phytotoxicity rating DIGSA [5]	phytotoxicity rating CASOB [6]	phytotoxicity rating CHEAL [8]	phytotoxicity rating SETVI [9]	IPOHE phytotoxicity rating (0-100) [10]	AMARE phytotoxicity rating (0-100) [11]	SORHA phytotoxicity rating (0-100) [12]	ECHCG phytotoxicity rating (0-100) [13]	DIGSA phytotoxicity rating (0-100) [14]	CASOB phytotoxicity rating (0-100) [15]	ABUTH phytotoxicity rating (0-100) [16]	CHEAL phytotoxicity rating (0-100) [17]	SETVI phytotoxicity rating (0-100) [18]	also measured
O=c1cc2n(c(=O)n1-c1cc(Oc3ncccc3C(F)(F)F)c(Cl)cc1F)CCC2 [Compound 5-10, 2-[4-chloro-2-fluoro-5-(3-trifluoromethyl-2-pyridyloxy)phenyl]-6,7-dihydropyrrolo[1,2-c]pyrimidine-1,3(2H,5H)dione]	100	100	100	100	100	0	100	100	70	80	70	80	10	30	100	80	20	phytotoxicity rating ABUTH [7]: 100
N#Cc1ccc(Oc2cc(-n3c(=O)cc4n(c3=O)CCC4)c(F)cc2Cl)nc1 [Compound 5-11]	80	80	99	95	90	30	100	95	90	70	20	20	0	10	100	90	10	CORN crop damage rating (0-100) [19]: 15; RICE crop damage rating (0-100) [20]: 25; crop damage rating CORN [21]: 30; crop damage rating RICE [22]: 80; crop damage rating SOY [23]: 60; SOY crop damage rating (0-100) [24]: 40
